These results are taken from ChEMBL document CHEMBL1201862, “PubChem BioAssay data set” (2004).

Calls of active or inactive are those of the source.

The target in one experiment is T1, Estrogen receptor (Homo sapiens, UniProt P03372).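 Further: potency for inhibiting coactivator peptide recruitment to the receptor.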
T1 sequence (P03372 whole entry): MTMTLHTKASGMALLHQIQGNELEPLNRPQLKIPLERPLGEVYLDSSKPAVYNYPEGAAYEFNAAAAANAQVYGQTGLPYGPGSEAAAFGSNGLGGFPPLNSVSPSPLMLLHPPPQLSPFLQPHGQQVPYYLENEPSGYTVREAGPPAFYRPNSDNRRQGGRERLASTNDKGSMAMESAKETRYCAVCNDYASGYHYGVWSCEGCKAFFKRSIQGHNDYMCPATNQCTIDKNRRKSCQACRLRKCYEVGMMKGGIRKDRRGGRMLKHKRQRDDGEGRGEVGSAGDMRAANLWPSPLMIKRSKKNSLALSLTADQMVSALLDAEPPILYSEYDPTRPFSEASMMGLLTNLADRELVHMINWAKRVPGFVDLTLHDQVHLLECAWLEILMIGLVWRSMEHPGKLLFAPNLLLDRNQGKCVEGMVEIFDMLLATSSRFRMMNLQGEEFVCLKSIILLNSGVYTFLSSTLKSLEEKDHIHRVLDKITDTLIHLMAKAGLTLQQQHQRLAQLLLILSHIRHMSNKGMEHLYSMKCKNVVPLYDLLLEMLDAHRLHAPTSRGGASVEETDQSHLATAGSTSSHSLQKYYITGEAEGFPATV

The target in experiment [1] is Eukaryotic translation initiation factor 4E (Mus musculus, UniProt P63073). Briefly: eIF4E–eIF4G protein interaction inhibitors, dose response, biochemical, TR-FRET (AID 855).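 Further: potency for disrupting eIF4E binding to eIF4GI seen as loss of FRET.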 It counts as functional. On the technique in general: Time-resolved FRET reads energy transfer from a long-lived donor to a nearby acceptor.
The nature of experiment [2]: Luminescence Cell-Based Dose Confirmation HTS to Identify Activators of 5'UTR Stem-Loop Driven Alpha-Synuclein mRNA Translation in H4 Neuroglioblastoma Cells. [Related pubchem assays: 1829 (Project Summary), 1814 (Primary HTS)]. It counts as functional.
Experiment [3] can be described thus: Luminescence Cell-Based Dose Response HTS to Identify Activators of Luciferase Translation or Activity in H4 […] Cells. [Related pubchem assays: 1829 (Project Summary), 1814 (Primary HTS)]. Format: functional.
Another experiment concerns H4. Briefly: Luminescence Cell-Based Dose Response HTS to Identify Activators of 5'UTR Stem-Loop Driven Prion Protein mRNA Translation in H4 Neuroglioblastoma Cells. [Related pubchem assays: 1829 (Project Summary), 1814 (Primary HTS)]. It counts as functional. The following applies: Homo sapiens.
Experiment [4] addresses T2, Rac GTPase-activating protein 1 (Homo sapiens, UniProt Q9H0H5).
T2 sequence (Q9H0H5 whole entry): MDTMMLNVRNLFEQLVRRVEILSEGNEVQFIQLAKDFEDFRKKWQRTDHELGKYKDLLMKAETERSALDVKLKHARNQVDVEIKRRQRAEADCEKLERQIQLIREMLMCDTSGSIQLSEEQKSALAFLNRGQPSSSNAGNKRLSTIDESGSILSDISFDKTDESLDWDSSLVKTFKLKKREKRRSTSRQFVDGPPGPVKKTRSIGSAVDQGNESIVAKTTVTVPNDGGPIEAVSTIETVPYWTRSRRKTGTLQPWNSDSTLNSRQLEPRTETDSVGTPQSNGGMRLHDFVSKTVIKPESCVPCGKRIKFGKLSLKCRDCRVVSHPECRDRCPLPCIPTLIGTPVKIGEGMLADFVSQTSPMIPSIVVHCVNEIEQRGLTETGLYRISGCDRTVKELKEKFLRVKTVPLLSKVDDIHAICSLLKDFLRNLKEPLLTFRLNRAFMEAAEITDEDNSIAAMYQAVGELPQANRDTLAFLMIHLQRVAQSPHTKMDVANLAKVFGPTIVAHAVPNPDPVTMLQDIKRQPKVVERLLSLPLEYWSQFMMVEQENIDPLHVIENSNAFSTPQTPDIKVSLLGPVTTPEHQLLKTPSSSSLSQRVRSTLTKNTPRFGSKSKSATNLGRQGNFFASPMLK
Kind of experiment: MgcRacGAP GTPase-activating activity inhibitors, confirmation, biochemical, ADP Hunter fluorescence, primary and confirmatory (AID 624330). It counts as functional.

The next experiment has as its target Beta-galactosidase (Escherichia coli, UniProt Q8VNN2). Kind of experiment: PubChem AID 485352. Format: functional.
Experiment [5] addresses T3, Type-1 angiotensin II receptor (Homo sapiens, UniProt P30556).
T3 sequence (P30556 whole entry): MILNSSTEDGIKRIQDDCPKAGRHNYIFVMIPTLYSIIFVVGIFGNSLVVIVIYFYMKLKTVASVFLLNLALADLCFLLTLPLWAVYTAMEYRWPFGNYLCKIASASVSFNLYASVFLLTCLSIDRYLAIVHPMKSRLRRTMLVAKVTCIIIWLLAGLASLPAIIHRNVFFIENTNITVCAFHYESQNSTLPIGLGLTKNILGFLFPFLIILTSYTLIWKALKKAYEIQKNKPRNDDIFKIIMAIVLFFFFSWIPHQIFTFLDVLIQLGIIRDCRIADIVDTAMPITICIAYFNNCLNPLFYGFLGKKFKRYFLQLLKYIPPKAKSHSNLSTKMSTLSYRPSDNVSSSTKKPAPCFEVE
Kind of experiment: AT1 receptor antagonists, dose response, selectivity assay for APJ receptor antagonist project, cell-based, uHTS hits (AID 463214).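 Further: antagonist potency against angiotensin II stimulated AT1 response.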 Format: functional.

The nature of experiment [6]: Luminescence Cell-Based Dose Retest to Confirm Inhibitors of Cancer Stem Cells. [Related pubchem assays (depositor defined):AID2717, AID2721]. It counts as functional. Conditions: Homo sapiens.
For experiment [7], the target named is Glyceraldehyde-3-phosphate dehydrogenase (Homo sapiens, UniProt P04406).
In experiment [8] the target is T4, Alkaline phosphatase, tissue-nonspecific isozyme (Homo sapiens, UniProt P05186).
T4 sequence (P05186 whole entry): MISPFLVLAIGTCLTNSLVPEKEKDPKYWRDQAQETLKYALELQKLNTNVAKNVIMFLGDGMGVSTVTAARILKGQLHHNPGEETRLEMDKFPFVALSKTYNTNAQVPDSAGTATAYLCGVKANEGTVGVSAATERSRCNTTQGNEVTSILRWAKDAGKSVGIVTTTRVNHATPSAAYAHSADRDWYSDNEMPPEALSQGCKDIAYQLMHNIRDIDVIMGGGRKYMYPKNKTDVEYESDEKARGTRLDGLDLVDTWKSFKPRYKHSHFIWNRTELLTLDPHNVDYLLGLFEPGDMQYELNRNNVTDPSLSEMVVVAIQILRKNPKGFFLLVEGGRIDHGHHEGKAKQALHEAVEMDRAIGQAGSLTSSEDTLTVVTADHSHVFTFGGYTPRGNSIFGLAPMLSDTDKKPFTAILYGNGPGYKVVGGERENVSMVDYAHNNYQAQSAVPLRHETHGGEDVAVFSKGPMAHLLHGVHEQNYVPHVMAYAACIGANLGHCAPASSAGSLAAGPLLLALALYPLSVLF
Briefly: human TNAP enzyme inhibitors, SAR follow-up, biochemical, luminescent, dose response (AID 1056).

The target of experiment [9] is Alkaline phosphatase, placental type (Homo sapiens, UniProt P05187). Kind of experiment: PLAP enzyme inhibitors, confirmation, biochemical, luminescence (AID 1512). It counts as functional.
The target in experiment [10] is Peroxisome proliferator-activated receptor gamma/Nuclear receptor coactivator 1 (Homo sapiens, UniProt P37231). Kind of experiment: TR-FRET dose response biochemical High Throughput Screening assay for agonists of the steroid receptor coactivator 1 (SRC-1) recruitment by the peroxisome proliferator-activated receptor gamma (PPAR gamma): non-selective agonists. [Related pubchem assays (depositor defined):AID1300, AID1808, AID504735, AID631]. It counts as protein assay.

The target in experiment [11] is Peroxisome proliferator-activated receptor gamma/Nuclear receptor coactivator 3 (Homo sapiens, UniProt P37231). Kind of experiment: TR-FRET dose response biochemical High Throughput Screening assay for agonists of the steroid receptor coactivator 3 (SRC-3) recruitment by the peroxisome proliferator-activated receptor gamma (PPAR gamma): non-selective agonists. [Related pubchem assays: 1301 (Confirmation screen.), 1048 (Primary screen.)]. It counts as functional.

Experiment [12] addresses Peroxisome proliferator-activated receptor gamma/Nuclear receptor coactivator 2 (Homo sapiens, UniProt P37231). Kind of experiment: TR-FRET dose response biochemical High Throughput Screening assay for agonists of the steroid receptor coactivator 2 (SRC-2) recruitment by the peroxisome proliferator-activated receptor gamma (PPAR gamma): non-selective agonists. [Related pubchem assays: 1297, 1032 ]. It counts as functional.

A further experiment relates to INS1. Briefly: beta cell apoptosis inhibitors, cytokine rescue, dose response, luminescence, retest (AID 449756).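 Further: cell death triggered by IL-1 beta plus TNF-alpha plus IFN-gamma mixture; protective hits raise ATP signal compared with cytokine alone wells.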 The following applies: Rattus norvegicus. Format: functional, cell-based.

Sequence of Alkaline phosphatase, placental type (P05187 whole entry): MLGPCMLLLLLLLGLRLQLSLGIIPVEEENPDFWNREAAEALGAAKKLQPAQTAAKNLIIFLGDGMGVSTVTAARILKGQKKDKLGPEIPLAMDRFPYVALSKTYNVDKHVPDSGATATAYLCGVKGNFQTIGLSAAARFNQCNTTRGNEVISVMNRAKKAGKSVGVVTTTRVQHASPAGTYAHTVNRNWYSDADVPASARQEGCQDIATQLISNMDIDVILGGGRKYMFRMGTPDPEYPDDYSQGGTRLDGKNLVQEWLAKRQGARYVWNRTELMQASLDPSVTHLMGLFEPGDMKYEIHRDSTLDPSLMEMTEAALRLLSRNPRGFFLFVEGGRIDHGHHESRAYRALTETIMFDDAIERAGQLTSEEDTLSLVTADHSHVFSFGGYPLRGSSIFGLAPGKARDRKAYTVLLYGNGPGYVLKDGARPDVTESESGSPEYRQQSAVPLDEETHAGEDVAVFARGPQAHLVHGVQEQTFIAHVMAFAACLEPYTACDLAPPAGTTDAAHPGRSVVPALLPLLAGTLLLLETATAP
Sequence of Glyceraldehyde-3-phosphate dehydrogenase (P04406 whole entry): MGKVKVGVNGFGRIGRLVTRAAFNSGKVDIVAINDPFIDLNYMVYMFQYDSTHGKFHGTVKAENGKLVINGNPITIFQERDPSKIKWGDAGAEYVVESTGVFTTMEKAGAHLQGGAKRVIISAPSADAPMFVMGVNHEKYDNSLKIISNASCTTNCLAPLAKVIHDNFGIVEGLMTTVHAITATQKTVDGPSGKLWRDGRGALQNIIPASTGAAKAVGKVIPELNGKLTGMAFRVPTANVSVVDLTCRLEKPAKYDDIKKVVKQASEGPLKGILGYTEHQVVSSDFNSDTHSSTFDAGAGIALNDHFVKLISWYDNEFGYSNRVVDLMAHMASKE
Sequence of Beta-galactosidase (Q8VNN2 whole entry): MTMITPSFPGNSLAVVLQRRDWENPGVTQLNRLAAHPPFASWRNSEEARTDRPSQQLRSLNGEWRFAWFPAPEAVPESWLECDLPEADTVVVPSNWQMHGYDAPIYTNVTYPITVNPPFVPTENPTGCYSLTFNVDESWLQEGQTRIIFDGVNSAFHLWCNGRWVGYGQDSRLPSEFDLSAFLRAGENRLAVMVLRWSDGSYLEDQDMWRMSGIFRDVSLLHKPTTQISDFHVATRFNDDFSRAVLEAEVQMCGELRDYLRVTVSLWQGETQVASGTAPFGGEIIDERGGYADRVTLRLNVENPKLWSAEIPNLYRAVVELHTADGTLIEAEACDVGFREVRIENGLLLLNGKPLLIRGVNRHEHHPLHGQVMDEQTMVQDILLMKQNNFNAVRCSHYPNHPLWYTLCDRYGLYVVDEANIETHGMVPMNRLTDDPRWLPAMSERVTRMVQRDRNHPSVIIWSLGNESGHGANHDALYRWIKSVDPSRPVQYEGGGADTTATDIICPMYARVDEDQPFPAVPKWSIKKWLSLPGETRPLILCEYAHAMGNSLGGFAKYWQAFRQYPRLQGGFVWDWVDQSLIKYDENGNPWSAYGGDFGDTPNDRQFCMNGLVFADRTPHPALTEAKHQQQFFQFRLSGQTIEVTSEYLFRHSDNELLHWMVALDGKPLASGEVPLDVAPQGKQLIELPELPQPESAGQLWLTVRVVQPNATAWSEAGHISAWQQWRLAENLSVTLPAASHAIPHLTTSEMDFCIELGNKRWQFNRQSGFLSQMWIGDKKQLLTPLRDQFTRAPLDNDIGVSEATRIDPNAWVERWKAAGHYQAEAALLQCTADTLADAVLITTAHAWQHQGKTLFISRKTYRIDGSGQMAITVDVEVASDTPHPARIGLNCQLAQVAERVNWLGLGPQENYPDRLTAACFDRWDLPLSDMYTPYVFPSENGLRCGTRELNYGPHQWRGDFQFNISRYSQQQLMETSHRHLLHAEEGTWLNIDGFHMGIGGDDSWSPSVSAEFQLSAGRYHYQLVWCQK
Sequence of Peroxisome proliferator-activated receptor gamma/Nuclear receptor coactivator 2 (P37231 whole entry): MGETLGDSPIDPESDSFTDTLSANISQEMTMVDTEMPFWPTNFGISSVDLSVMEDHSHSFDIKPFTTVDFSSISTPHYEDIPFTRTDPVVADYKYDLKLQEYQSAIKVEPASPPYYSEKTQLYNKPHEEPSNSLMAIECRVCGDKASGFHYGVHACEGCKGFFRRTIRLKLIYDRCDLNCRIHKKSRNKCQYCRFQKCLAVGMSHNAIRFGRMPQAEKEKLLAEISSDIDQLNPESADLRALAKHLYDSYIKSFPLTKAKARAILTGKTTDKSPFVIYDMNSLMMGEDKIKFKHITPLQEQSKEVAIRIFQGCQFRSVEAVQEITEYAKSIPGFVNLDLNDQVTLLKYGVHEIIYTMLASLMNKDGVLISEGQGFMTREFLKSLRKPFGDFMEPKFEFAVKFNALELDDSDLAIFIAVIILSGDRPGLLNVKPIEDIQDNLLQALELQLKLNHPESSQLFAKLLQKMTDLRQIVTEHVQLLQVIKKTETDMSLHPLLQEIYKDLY
Sequence of Peroxisome proliferator-activated receptor gamma/Nuclear receptor coactivator 2 (Q15596 whole entry, further chain): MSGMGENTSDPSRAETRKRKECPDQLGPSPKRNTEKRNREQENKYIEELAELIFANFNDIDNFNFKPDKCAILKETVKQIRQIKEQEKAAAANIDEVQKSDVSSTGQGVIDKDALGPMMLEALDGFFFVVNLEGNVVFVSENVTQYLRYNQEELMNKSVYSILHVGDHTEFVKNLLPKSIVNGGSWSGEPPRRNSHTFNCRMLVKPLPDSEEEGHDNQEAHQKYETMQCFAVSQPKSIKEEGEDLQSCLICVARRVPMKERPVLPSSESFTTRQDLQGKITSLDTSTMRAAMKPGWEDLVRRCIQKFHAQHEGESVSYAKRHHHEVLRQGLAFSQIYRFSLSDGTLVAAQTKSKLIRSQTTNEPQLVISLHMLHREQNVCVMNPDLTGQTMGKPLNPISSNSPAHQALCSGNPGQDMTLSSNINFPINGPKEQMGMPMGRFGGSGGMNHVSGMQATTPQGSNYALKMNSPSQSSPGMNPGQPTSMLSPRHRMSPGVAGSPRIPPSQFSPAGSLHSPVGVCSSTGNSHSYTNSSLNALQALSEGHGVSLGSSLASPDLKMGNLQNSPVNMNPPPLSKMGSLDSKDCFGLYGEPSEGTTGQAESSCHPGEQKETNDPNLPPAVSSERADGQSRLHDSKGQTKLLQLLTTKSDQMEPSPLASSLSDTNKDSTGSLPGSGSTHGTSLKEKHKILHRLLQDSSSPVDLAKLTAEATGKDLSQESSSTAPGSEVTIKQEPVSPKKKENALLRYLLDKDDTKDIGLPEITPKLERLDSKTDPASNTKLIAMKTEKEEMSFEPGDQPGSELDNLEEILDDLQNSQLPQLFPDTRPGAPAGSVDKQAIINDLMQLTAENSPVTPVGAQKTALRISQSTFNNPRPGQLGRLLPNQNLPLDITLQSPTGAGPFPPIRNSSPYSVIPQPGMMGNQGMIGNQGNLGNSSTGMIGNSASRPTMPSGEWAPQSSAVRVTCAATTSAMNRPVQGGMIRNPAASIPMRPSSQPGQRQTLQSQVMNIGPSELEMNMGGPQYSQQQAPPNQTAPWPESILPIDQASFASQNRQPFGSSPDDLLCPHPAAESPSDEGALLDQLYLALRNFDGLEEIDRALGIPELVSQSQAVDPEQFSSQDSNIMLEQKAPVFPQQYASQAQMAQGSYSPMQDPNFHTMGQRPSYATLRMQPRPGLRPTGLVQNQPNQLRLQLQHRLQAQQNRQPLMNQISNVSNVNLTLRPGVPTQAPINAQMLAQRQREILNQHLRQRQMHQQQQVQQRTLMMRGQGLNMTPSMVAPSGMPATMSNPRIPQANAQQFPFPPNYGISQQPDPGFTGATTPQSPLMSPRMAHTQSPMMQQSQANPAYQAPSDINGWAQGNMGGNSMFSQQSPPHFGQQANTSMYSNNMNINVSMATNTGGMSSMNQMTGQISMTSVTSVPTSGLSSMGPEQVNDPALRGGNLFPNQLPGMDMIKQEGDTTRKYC
Sequence of Eukaryotic translation initiation factor 4E (P63073 whole entry): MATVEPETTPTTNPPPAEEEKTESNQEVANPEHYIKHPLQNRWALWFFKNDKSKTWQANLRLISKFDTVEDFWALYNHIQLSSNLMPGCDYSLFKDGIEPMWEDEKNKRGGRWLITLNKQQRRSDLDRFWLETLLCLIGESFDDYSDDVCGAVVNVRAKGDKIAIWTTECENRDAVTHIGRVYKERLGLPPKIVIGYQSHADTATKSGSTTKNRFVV

`COC(=O)COc1ccc(S(=O)(=O)Nc2ccc3c(c2)OCO3)cc1`: the IC50 (as a rule, the concentration that inhibits the measured activity by half) against Estrogen receptor was > 50 µM (not active); in experiment [1] it was > 64 µM (inactive).

Consider `CN(C)c1ccc2c(c1)N=C(c1ccco1)OP2(=S)N1CCOCC1` (stereo not drawn), for which the concentration giving a half-maximal response (EC50) (in general, the concentration at which the effect is half-maximal) is 15.7 µM (active) in [2], 17.9 µM (active) in experiment [3] and 49.6 µM (active) in the experiment with H4. The IC50 in experiment [1] is > 64 µM (inactive); in experiment [4], 179 µM (active).

As for `O=C(NNc1ccc(-c2csnn2)cc1)c1cc(Cl)cc(Cl)c1`, on Beta-galactosidase, the EC50 was > 40 µM (inactive). The IC50 in experiment [5] was 2.43 µM (active). Moreover, in [6], the concentration at half-maximal activity (AC50) (in general, the concentration giving half of the maximal activity seen) is 2.15 µM (active).

Regarding `O=S(=O)(Nc1cccnc1)c1cc(Cl)ccc1Cl`, the IC50 is > 100 µM (not active) in experiment [7] and > 100 µM (inactive) in experiment [8].

Turning to `O=C1c2cccc(F)c2C(=O)N1c1nnc(Cc2ccccc2)[nH]1`, the half-inhibitory concentration (IC50) in experiment [7] was > 100 µM (not active); in [9], > 100 µM (inactive); in experiment [8] it was 0.353 µM (active).

Regarding `CCc1c(C(=O)NNC(=S)NCC2CCCO2)csc1C` (stereo not drawn), in experiment [9], the IC50 is > 100 µM (inactive).

`CC1(C)CC(=O)c2c(n[nH]c2-c2cccnc2)C1`: the IC50 is > 100 µM (not active) in experiment [7], > 100 µM (inactive) in experiment [9] and 13.3 µM (active) in experiment [8].

Consider `O=C(CSc1ncnc2c1oc1ccccc12)NC1CCCCC1`, for which the values for the concentration giving a half-maximal response (EC50) in experiment [10], in experiment [11] and in experiment [12] were 9.85 µM (active), > 79.4 µM (not active) and 14.4 µM (not active), respectively.

For the compound `COc1ccc(CNC(=O)CSc2nc(-c3ccccc3)cc(-c3cccs3)c2C#N)cc1`, the EC50 in experiment [10] is 22.9 µM (inactive); in experiment [11], > 79.4 µM (not active); in experiment [12] it was 22.2 µM (not active).

In the case of `O=C(O)c1ccc2c(c1)C(=O)N(c1nc(-c3cccnc3)n[nH]1)C2=O`, the results for the half-inhibitory concentration (IC50) in experiment [7] and in experiment [8] were > 100 µM (not active) and > 100 µM (inactive), respectively.

On to `CCOC(=O)c1sc2nc(C)nc(S)c2c1C`, for which the EC50 was 162 µM (inactive) in [10], > 79.4 µM (not active) in experiment [11] and 37.3 µM (not active) in experiment [12].

For the compound `COc1ccc(CC(=O)OCC(=O)c2ccc(S(=O)(=O)N3CCCCC3)cc2)cc1`, on Beta-galactosidase, the EC50 was > 40 µM (inactive). Besides, the IC50 in [5] is given as 20 µM (not active).

`Nc1nc(COc2ccccc2)n(-c2ccccc2)n1`: the figures for the half-inhibitory concentration (IC50) in experiment [7], in [9] and in [8] were > 100 µM (not active), > 100 µM (inactive) and > 100 µM (inactive), respectively.

Consider `COc1ccc2c(c1)C(=O)[C@H](O)[C@@H](c1ccc(OC)c(Br)c1)O2`, for which, on Beta-galactosidase, the EC50 is > 40 µM (inactive). Besides, in [5], the concentration for half-maximal inhibition (IC50) is 12.1 µM (active). Further, the values for the AC50 (in experiment [6]; with INS1) were 7.62 µM (active) and 3.71 µM (active), respectively.

Take `CCNC(=S)NNC(=O)c1cc(C2CC2)nc2ccccc12`: in [9], the IC50 is > 100 µM (inactive).

Consider `Cc1ccc(-n2c(S)nnc2-c2cccc(C)c2)cc1`, for which the EC50 is 70.8 µM (inactive) in [10], > 79.4 µM (not active) in [11] and 40.1 µM (not active) in experiment [12].

Regarding `O=C1CC(Sc2nnc(-c3ccccc3)o2)C(=O)N1c1ccccc1` (stereo not drawn), the EC50 in [10] was > 79.4 µM (inactive); in experiment [11], > 79.4 µM (not active); in experiment [12], 89.2 µM (not active).

Turning to `O=C(CSc1nnc(-c2ccccc2)[nH]1)c1ccc(O)cc1O`, the IC50 is > 100 µM (inactive) in experiment [9] and 3.71 µM (active) in experiment [8].
